The source of these data is patent US20250171498A1, “ANTIBIOTIC COMPOUNDS, FORMULATIONS AND METHODS OF USE” (UNIVERSITEIT LEIDEN, priority 2022, published 2025).

Common to all, as to assay type: cell-based
Data set [1] concerns A. Baumanni (ATCC 19606). Particulars: ATCC 19606. As to the method: (§1) Compounds were prepared according to scheme 2, 3, 4, 6, 7, or 8 above, preparing different sets of compounds with different substitution patterns. All polymyxin analogues prepared were tested for their anti-bacterial activity on relevant Gram-negative strains (Table B). Polymyxin B and PMBN were taken along as references. In addition, the toxicity on renal Proximal Tubular Epithelial Cells (PTECs) was evaluated.
(§2) 3rd Generation compounds were also subjected to testing for their anti-bacterial activity on relevant Gram-negative strains (Table C). Polymyxin B and PMBN were taken along as references. In addition, the toxicity on renal Proximal Tubular Epithelial Cells (PTECs) was evaluated, see Table C.

Data set [2] concerns E. Coli (ATCC 25922). Particulars: ATCC 25922. As to the method:
as §1, §2

Data set [3] concerns K. Pneumoniae (ATCC 13883). Particulars: ATCC 13883. The protocol: as §1, §2
Data set [4] deals with P. Aeruginosa (ATCC 27853). Particulars: ATCC 27853. The protocol: as §1, §2
Data set [5] concerns renal Proximal Tubular Epithelial Cells (PTECs). Nature of the data set: Toxicity on renal Proximal Tubular Epithelial Cells. The protocol: as §1, §2

Each structure is given as a SMILES string. Converted amounts (≈) assume the structure as drawn. Where a SMILES comes first, the peptide text is derived from it. Bridges are numbered along the chain shown (N, C = ends). [ ]: non-standard residue; d: D form. The star is where a group is joined. S(2-cyclohexylethyl) = C1CCC(CCS*)CC1; S(3-Cl-benzyl) = Clc1cccc(CS*)c1; S(3-Methylbutyl) = CC(C)CCS*; dDap = NC[C@@H](N)C(=O)O; Dab = NCC[C@H](N)C(=O)O; Dap = NC[C@H](N)C(=O)O

For `CC(C)CCSSC[C@@H](N)C(=O)N[C@H](C(=O)N[C@H](CO)C(=O)N[C@H]1CCNC(=O)[C@H]([C@@H](C)O)NC(=O)[C@H](CCN)NC(=O)[C@H](CCN)NC(=O)[C@H](CC(C)C)NC(=O)[C@@H](Cc2ccccc2)NC(=O)[C@H](CCN)NC1=O)[C@@H](C)O` (H-[dC](S(3-Methylbutyl))T[dS][Dab][Dab][dF]L[Dab][Dab]T; lactam 4-C), the “MIC A. Baumanni (ATCC 19606)” value in data set [1] was 0.25 µg/mL (≈ 0.216 µM). In data set [2], the “MIC E. Coli (ATCC 25922)” value was 2 µg/mL (≈ 1.73 µM). Further, in data set [3], the “MIC K. Pneumoniae (ATCC 13883)” value amounted to 0.5 µg/mL (≈ 0.433 µM). Also, the “MIC P. Aeruginosa (ATCC 27853)” value in data set [4] amounted to 4 µg/mL (≈ 3.46 µM). Moreover, the “PTEC Toxicity (relative to polymyxin B)” value in data set [5] was 21.2.
As for `CC(C)CCSSC[C@@H](N)C(=O)N[C@H](C(=O)N[C@H](CN)C(=O)N[C@H]1CCNC(=O)[C@H]([C@@H](C)O)NC(=O)[C@H](CCN)NC(=O)[C@H](CCN)NC(=O)[C@H](CC(C)C)NC(=O)[C@@H](Cc2ccccc2)NC(=O)[C@H](CCN)NC1=O)[C@@H](C)O` (H-[dC](S(3-Methylbutyl))T[dDap][Dab][Dab][dF]L[Dab][Dab]T; lactam 4-C), in data set [1], the “MIC A. Baumanni (ATCC 19606)” value amounted to 0.25 µg/mL (≈ 0.217 µM). The “MIC E. Coli (ATCC 25922)” value in data set [2] turned out to be 2 µg/mL (≈ 1.73 µM). The “MIC K. Pneumoniae (ATCC 13883)” value in data set [3] amounted to 0.5 µg/mL (≈ 0.433 µM). In addition, the “MIC P. Aeruginosa (ATCC 27853)” value in data set [4] is 1 µg/mL (≈ 0.866 µM). In addition, the “PTEC Toxicity (relative to polymyxin B)” value in data set [5] is recorded as 9.7.
Regarding `CC(C)C[C@@H]1NC(=O)[C@@H](Cc2ccccc2)NC(=O)[C@H](CCN)NC(=O)[C@@H](NC(=O)[C@@H](CO)NC(=O)[C@@H](NC(=O)[C@H](N)CSSCCC2CCCCC2)[C@@H](C)O)CCNC(=O)[C@H]([C@@H](C)O)NC(=O)[C@H](CCN)NC(=O)[C@H](CCN)NC1=O` (H-[dC](S(2-cyclohexylethyl))T[dS][Dab][Dab][dF]L[Dab][Dab]T; lactam 4-C), in data set [1], the “MIC A. Baumanni (ATCC 19606)” value is 0.25 µg/mL (≈ 0.209 µM). The “MIC E. Coli (ATCC 25922)” value in data set [2] is 2 µg/mL (≈ 1.67 µM). Also, the “MIC K. Pneumoniae (ATCC 13883)” value in data set [3] came out at 1 µg/mL (≈ 0.836 µM). Moreover, in data set [4], the “MIC P. Aeruginosa (ATCC 27853)” value is 4 µg/mL (≈ 3.35 µM). The “PTEC Toxicity (relative to polymyxin B)” value in data set [5] amounted to 3.3.
Regarding `CC(C)C[C@@H]1NC(=O)[C@@H](Cc2ccccc2)NC(=O)[C@H](CCN)NC(=O)[C@@H](NC(=O)[C@@H](CO)NC(=O)[C@@H](NC(=O)[C@H](N)CSSCc2cccc(Cl)c2)[C@@H](C)O)CCNC(=O)[C@H]([C@@H](C)O)NC(=O)[C@H](CCN)NC(=O)[C@H](CCN)NC1=O` (H-[dC](S(3-Cl-benzyl))T[dS][Dab][Dab][dF]L[Dab][Dab]T; lactam 4-C), the “MIC A. Baumanni (ATCC 19606)” value in data set [1] stood at 0.5 µg/mL (≈ 0.413 µM). Moreover, the “MIC E. Coli (ATCC 25922)” value in data set [2] was 2 µg/mL (≈ 1.65 µM). The “MIC K. Pneumoniae (ATCC 13883)” value in data set [3] worked out at 1 µg/mL (≈ 0.827 µM). Moreover, the “MIC P. Aeruginosa (ATCC 27853)” value in data set [4] was 4 µg/mL (≈ 3.31 µM). Also, the “PTEC Toxicity (relative to polymyxin B)” value in data set [5] came to 6.7.
As for `CC(C)CCSSC[C@@H](N)C(=O)N[C@H](C(=O)N[C@@H](CCN)C(=O)N[C@H]1CCNC(=O)[C@H]([C@@H](C)O)NC(=O)[C@H](CCN)NC(=O)[C@H](CCN)NC(=O)[C@H](CC(C)C)NC(=O)[C@@H](Cc2ccccc2)NC(=O)[C@H](CCN)NC1=O)[C@@H](C)O` [drawing 140] (H-[dC](S(3-Methylbutyl))T[Dab][Dab][Dab][dF]L[Dab][Dab]T; lactam 4-C), the “MIC A. Baumanni (ATCC 19606)” value in data set [1] came out at 0.5 µg/mL (≈ 0.428 µM). Further, in data set [2], the “MIC E. Coli (ATCC 25922)” value worked out at 1 µg/mL (≈ 0.856 µM). Besides, the “MIC K. Pneumoniae (ATCC 13883)” value in data set [3] was determined as 0.5 µg/mL (≈ 0.428 µM). Also, the “MIC P. Aeruginosa (ATCC 27853)” value in data set [4] was determined as 1 µg/mL (≈ 0.856 µM). Moreover, the “PTEC Toxicity (relative to polymyxin B)” value in data set [5] came out at 9.8.
`CC(C)C[C@@H]1NC(=O)[C@@H](Cc2ccccc2)NC(=O)[C@H](CCN)NC(=O)[C@@H](NC(=O)[C@H](CN)NC(=O)[C@@H](NC(=O)[C@H](N)CSSCCC2CCCCC2)[C@@H](C)O)CCNC(=O)[C@H]([C@@H](C)O)NC(=O)[C@H](CCN)NC(=O)[C@H](CCN)NC1=O` (H-[dC](S(2-cyclohexylethyl))T[Dap][Dab][Dab][dF]L[Dab][Dab]T; lactam 4-C): in data set [1], the “MIC A. Baumanni (ATCC 19606)” value came out at 0.5 µg/mL (≈ 0.419 µM). The “MIC E. Coli (ATCC 25922)” value in data set [2] came out at 1 µg/mL (≈ 0.837 µM). Moreover, the “MIC K. Pneumoniae (ATCC 13883)” value in data set [3] stood at 1 µg/mL (≈ 0.837 µM). Also, in data set [4], the “MIC P. Aeruginosa (ATCC 27853)” value amounted to 2 µg/mL (≈ 1.67 µM). Also, in data set [5], the “PTEC Toxicity (relative to polymyxin B)” value came to 2.9.
Turning to `CC(C)C[C@@H]1NC(=O)[C@@H](Cc2ccccc2)NC(=O)[C@H](CCN)NC(=O)[C@@H](NC(=O)[C@@H](CN)NC(=O)[C@@H](NC(=O)[C@H](N)CSSCCC2CCCCC2)[C@@H](C)O)CCNC(=O)[C@H]([C@@H](C)O)NC(=O)[C@H](CCN)NC(=O)[C@H](CCN)NC1=O` (H-[dC](S(2-cyclohexylethyl))T[dDap][Dab][Dab][dF]L[Dab][Dab]T; lactam 4-C), the “MIC A. Baumanni (ATCC 19606)” value in data set [1] stood at 0.5 µg/mL (≈ 0.419 µM). Besides, in data set [2], the “MIC E. Coli (ATCC 25922)” value was 2 µg/mL (≈ 1.67 µM). For the same compound, in data set [3], the “MIC K. Pneumoniae (ATCC 13883)” value was 1 µg/mL (≈ 0.837 µM). Besides, the “MIC P. Aeruginosa (ATCC 27853)” value in data set [4] was determined as 2 µg/mL (≈ 1.67 µM). The “PTEC Toxicity (relative to polymyxin B)” value in data set [5] turned out to be 5.4.
